Assay results as given in patent US20230167155A1, “COMPOSITIONS AND METHODS” (KING'S COLLEGE LONDON, priority 2020, published 2023).
“Also recorded” adds a separate entry of the source. Where no end group is shown, it is not given here. The star is where a group is joined. Myristoyl = CCCCCCCCCCCCCC(=O)*

Columns and labels:
C57BL/6 mice [1] = assay: Ischaemia reperfusion injury, acute kidney injury; format: in vivo, mouse; details: 2 doses 7.5 mg/ml
Method: In more detail, Model 3: Ischaemia reperfusion injury: PTL0GC-1 induces quicker recovery, associated with reduced fibrosis, post acute kidney injury. Both kidneys of C57BL/6 mice were exposed under recovery anaesthesia, and both renal arteries completely occluded by clamps for 30 minutes, prior to release. 2 doses of PTL0GC-1 (7.5 mg/ml) or saline were administered to the mice immediately prior to clamping, and immediately prior to clamp release. Mice were allowed to recover and then monitored for 3 weeks, prior to euthanasia.

C57BL/6 mice [2] = assay: Delayed type hypersensitivity, contact sensitivity to oxazolone (ear swelling); format: in vivo, mouse
Method: C57BL/6 mice were topically sensitised with oxazolone on the shaved abdomen on day 0. Treatment with either saline, PTL060 (10 mg/g), equimolar PTL0GC-1 or equimolar *3-MP was given on day 3 and day 5, the last immediately prior to re-challenge with oxazolone onto the right ear. The left ear was treated with vehicle alone. On day 6, the difference in swelling of the right and left ears was measured and is presented as D mean ear thickness.
This example uses a model of contact hypersensitivity. Here, mice are challenged on the abdomen with the contact sensitizer oxazolone, before a re-challenge […] on both sides of the ear with oxazolone (on the right) or vehicle alone (on the left).
Swelling of the ears, measured with a micrometer, reflects the influx of monocytes/macrophages and T cells in a typical delayed-type hypersensitivity (DTH) response.
FIG. 19: Model of DTH involving contact sensitivity to oxazolone. WT mice were administered a PAR-1 agonist or antagonist at the point of second exposure to oxazolone, before ear thickness was assessed 24 hours later, and mice sacrificed for immunohistological analysis of cross sections of the affected ears, to determine the proportional area occupied by CD68+ cells (macrophages). *p<0.05. **p<0.01. ***p<0.001

ApoE−/− mice [3] = assay: Regression by weekly adoptive transfer of CD11b+ cells / monocytes pre-incubated with compound; format: in vivo, mouse; details: HFD 16 weeks, weekly IV 6 weeks; monocytes pre-treated 30 minutes, PTL060 100 microM or PTL0GC-1 25 microM
Method: In more detail, mechanistic insights: direct effect on monocyte/macrophage phenotype. ApoE−/− mice were fed a high fat diet for 16 weeks (baseline), prior to weekly IV treatment for 6 weeks with monocytes from BL6 mice, pre-treated for 30 minutes with either PTL060 (100 microM) or PTL0GC-1 (actually used at ¼ concentration-25 microM).
Extent of atherosclerosis was explored by en face examination of the surface area of aorta containing plaques using Oil-Red-O
Leukocytes were isolated from the blood of mice aged 8-10 weeks, using anti-CD11b MicroBeads (Miltenyi Biotec Ltd, Surrey, UK) according to manufacturers' instructions. For cell labelling, 2×10^7 CD11b+ cells were incubated with 4×10^−6 M of either PKH26 or PKH2 fluorescent dyes (Sigma, UK) for 5 minutes at 25° C. according to manufacturers' protocols, with the reaction stopped using 1% BSA in PBS followed by three washes. Each recipient mouse received 0.5×10^6 cells by IV injection; in some experiments, the cells were incubated with PTL060 (100 μM in 0.5 mls) or equimolar controls for 30 minutes at room temperature and washed three times before immediate injection. For viability assays, murine bone marrow cells were incubated for 5 days in 6 well plates, counted and re-seeded at 2×10^5 cells/ml in 24 well plates with 25 ng/ml MCSF. […]

[4] = Aristolochic acid nephropathy (AAN) model of renal fibrosis; format: in vivo; details: vs equimolar PTL060 or pure PAR-1 antagonist
ApoE−/− mice [5] = assay: Regression of established atheroma, weekly IV injections (Oil Red O en face, aortic root); format: in vivo, mouse; parameters: regression of atherosclerosis compared to PTL060 and untailed 3-MP: dose or concentration left out as unconfirmed
Method: For all atherosclerosis work, male ApoE−/− mice, from the age of 6-weeks, were fed with a high fat diet (HFD) consisting 35 kcal % fat, 1.25% cholesterol, and 0.5% cholic acid (Special Diet Services, Essex UK). Aortas were transplanted 2 weeks after starting the HFD, using a sleeve anastomosis technique described previously^11. Briefly, a 5 mm of the segment of the infrarenal donor aorta, flushed with 300 μl of saline containing 50 U of heparin, was transplanted into ApoE−/− recipient abdomen aortas (N=6 per group). Blood flow was confirmed by direct inspection after removal of the clamps. Mice were fed a HFD for 6-12 weeks post-transplantation before the experiment was terminated (Suppl FIG. 1A). To assess prevention of atheroma, mice (n=6 per group) received a single injection of PTL060 or controls by tail vein, and the experiments terminated 1-3 weeks later (Suppl FIG. 1B). For regression experiments, baseline groups (n=6) were fed a HFD to the age of 22 weeks before the mice were sacrificed. Experimental or control groups (n=3-6 per group) received weekly injections by tail vein for 3-6 weeks, beginning at age of 22 weeks before the experiments were terminated when mice were 25-28 weeks old (Suppl FIG. 1C).
Atherosclerotic lesions were evaluated as previously described^11. Simply, the entire length of the aorta was perfused with PBS, dissected using a dissecting microscope, longitudinally opened and stained with Oil Red O (ORO) solution (Sigma, UK) for 30 minutes, before being photographed with a digital camera (DSC-W320, Sony, Japan). The total aortic area and lesional area were measured by using Image J. Aortas from every animal were assessed. To assess lesions in the aortic sinus, hearts were embedded in paraffin, sectioned through the aortic root and incubated with elastin/van Gieson stain using the Accustain™ Elastin Stain kit (Sigma). Sections were examined on an Olympus U-ULH optical microscope (Olympus Optical Co. Ltd, Tokyo, Japan). Atheromatous lesional and total aortic root area was determined using Image-Pro Plus TM software version 4.0 (Media Cybernetics, Silver Spring, USA). At least three random sections were examined from each mouse in all groups.

## [Myr2]-KSSKSPSKKDDKKPGDK(CO—CH2-S—CH2-CH2-Phe-Cha-Cha-Arg-Lys-Pro-Asn-Asp-Lys-NH2)NH2 (K(Myristoyl)SSKSPSKKDDKKPGDK-NH2; not fully specified (residue 17, N-terminus); also: branched: thioether-linked Phe-Cha-Cha-Arg-Lys-Pro-Asn-Asp-Lys-NH2 on Lys17 side chain) [PTL0GC-1]
C57BL/6 mice [1]; prior to clamping and prior to clamp release, renal arteries clamped 30 minutes
  impact on the AKI: no impact on the AKI
C57BL/6 mice [1]; 3 weeks
  kidney fibrosis, histological analysis: trend towards less fibrosis
C57BL/6 mice [1]; by 3 weeks
  renal function: better renal function by 3 weeks
C57BL/6 mice [1]; monitored 3 weeks
  body weight during recovery phase: gain weight quicker
C57BL/6 mice [2]; intraperitoneal or subcutaneous, day 3 and day 5
  DTH response, IP and SC administration: efficacy of both IP and SC administration; also recorded: can inhibit the DTH response
C57BL/6 mice [2]; intravenously, day 3 and day 5, equimolar to PTL060 (10 mg/g), vs PTL060 and 3-MP
  difference in ear swelling (D mean ear thickness): biggest effect
C57BL/6 mice [2]; model of DTH
  macrophage infiltration into the skin: reduced macrophage infiltration into the skin
ApoE−/− mice [3]
  regression after transfer of pre-treated monocytes: the same degree of regression associated with IV treatment of the same reagents; also recorded: superior regression
[4]
  development of renal fibrosis, being confirmed: inhibits development of renal fibrosis
ApoE−/− mice [5]; ApoE−/− mice, vs equimolar PTL060 or pure PAR-1 antagonist
  regression of atherosclerosis, being confirmed: causes significant regression of atherosclerosis
ApoE−/− mice [5]; HFD 16 weeks, weekly IV for 6 weeks, equimolar to PTL060
  regression of atherosclerosis compared to PTL060 and untailed 3-MP: Superior regression
